Reference: patent publication US20060134693A1, “Olfactory cyclic nucleotide-gated channel cell-based assays to identify T1R and T2R taste modulators” (priority 2001, published 2006)
Blank lines part the entries; values can stand above or below the compound they belong to. Peptide text beside a SMILES is read from it.

Assays:
[1] = molecular target: T1, human T1R2/T1R3 sweet taste GPCR (Homo sapiens, UniProt Q7RTX0+Q8TE23); test: CNG136 cell line (HEK293-derived, co-expressing human CNG channel and human T1R2/T1R3), FLIPR384 response; type: cell-based; conditions: 5 mM Aspartame (saturating concentration, the normalization reference); average of 2
T1 construct: expressed in transfected cells; host or cells: CNG136, derived from HEK293
T1 sequence (Q8TE23 20-839): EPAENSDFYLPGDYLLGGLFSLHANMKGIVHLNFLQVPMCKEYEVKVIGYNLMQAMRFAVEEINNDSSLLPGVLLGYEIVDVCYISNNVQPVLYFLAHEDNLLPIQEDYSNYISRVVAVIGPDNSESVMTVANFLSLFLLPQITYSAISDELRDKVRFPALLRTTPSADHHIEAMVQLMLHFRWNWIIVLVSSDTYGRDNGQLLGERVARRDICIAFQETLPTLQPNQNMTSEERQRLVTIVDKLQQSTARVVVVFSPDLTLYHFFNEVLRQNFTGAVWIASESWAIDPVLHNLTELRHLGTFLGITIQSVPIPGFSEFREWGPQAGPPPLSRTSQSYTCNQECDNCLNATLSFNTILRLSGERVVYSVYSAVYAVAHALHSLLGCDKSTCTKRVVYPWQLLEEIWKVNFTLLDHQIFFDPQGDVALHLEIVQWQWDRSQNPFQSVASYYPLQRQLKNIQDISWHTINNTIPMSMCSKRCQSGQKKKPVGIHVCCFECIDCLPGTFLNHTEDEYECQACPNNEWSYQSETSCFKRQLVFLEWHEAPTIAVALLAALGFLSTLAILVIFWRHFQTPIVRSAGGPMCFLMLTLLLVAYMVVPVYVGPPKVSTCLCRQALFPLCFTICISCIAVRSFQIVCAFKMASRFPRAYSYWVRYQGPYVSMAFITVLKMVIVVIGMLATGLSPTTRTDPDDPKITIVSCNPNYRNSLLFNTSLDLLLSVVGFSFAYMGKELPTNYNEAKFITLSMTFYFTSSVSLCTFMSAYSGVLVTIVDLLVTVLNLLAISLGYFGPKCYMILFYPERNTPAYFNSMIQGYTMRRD
T1 sequence (Q7RTX0 21-852): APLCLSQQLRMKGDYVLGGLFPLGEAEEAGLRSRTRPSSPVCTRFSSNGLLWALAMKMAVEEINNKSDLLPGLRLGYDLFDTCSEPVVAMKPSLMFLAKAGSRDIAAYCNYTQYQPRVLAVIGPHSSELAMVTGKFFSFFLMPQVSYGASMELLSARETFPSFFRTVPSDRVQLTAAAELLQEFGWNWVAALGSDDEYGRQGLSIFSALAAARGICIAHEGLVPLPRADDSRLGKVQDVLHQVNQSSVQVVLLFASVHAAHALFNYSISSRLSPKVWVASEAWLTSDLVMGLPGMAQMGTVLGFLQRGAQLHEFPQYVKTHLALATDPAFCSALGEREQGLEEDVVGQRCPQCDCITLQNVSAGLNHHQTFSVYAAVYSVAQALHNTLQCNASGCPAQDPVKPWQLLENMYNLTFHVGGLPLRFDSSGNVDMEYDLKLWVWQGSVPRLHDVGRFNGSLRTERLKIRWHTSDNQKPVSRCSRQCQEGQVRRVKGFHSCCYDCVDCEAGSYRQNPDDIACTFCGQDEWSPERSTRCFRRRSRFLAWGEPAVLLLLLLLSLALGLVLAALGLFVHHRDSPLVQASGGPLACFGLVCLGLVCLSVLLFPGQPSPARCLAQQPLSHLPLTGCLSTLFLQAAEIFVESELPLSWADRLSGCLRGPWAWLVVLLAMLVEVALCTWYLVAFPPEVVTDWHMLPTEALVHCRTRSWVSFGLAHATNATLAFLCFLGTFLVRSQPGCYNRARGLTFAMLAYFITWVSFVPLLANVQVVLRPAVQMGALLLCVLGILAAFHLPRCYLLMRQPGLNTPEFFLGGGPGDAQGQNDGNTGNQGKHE
Method: (§1) Methods: […] This cell line was derived from HEK293 cells. CNG136 was tested with several sweet receptor agonists and modulators including, Compound 6542888, Compound 3069733, and Aspartame. Response to 10 uM of 6542888 and 3069733 and 5 mM Aspartame was measured using a FLIPR384 instrument (Molecular Devices) and is reported in Table I below. Data were normalized to the maximum activity obtained with a saturating concentration of Aspartame (5 mM). Compounds were also tested on control (“Parental CNG”) cells lacking the human sweet GPCR.

[2] = tested on: Parental CNG cells lacking the human sweet GPCR; test: Control Parental CNG cells lacking the human sweet GPCR, FLIPR384 response; type: cell-based; conditions: 5 mM Aspartame, average of 2
Method: as §1

[3] = molecular target: T2, human sweet receptor hT1R2/hT1R3 (Homo sapiens, UniProt Q7RTX0+Q8TE23); test: Isoproterenol-induced calcium influx in HEK-293-oCNGC cells expressing hT1R2/hT1R3; type: cell-based; conditions: PTX 100 ng/ml for 4 hours; 200 nM isoproterenol; 5 mM Aspartame, 2 mM Cyclamate, 4 mM Saccharin, 0.1 mM Neotame; FIG. 15
T2 construct: host or cells: human embryonic kidney cells (earlier application U.S. Ser. No. 10/770,127)
T2 sequence (Q8TE23 20-839): T1 sequence (Q8TE23 20-839)
T2 sequence (Q7RTX0 21-852): T1 sequence (Q7RTX0 21-852)
Method: FIG. 13 contains the result of an experiment showing that increasing concentrations of sweeteners inhibit the isoproterenol-induced-calcium influx in HEK 293-oCNGC cells expressing the human sweet receptor hT1R2/hT1R3. Delta F/F values were normalized to the fluorescence obtained after stimulation with 200 nM isoproterenol. Each value corresponds to the mean ± SD of a triplicate determination.
Cells were left untreated (control) or treated with PTX for 4 hours at 100 ng/ml prior to the experiment. Cells were then stimulated with 200 nM isoproterenol in the presence or absence of the indicated sweeteners (5 mM Aspartame, 2 mM Cyclamate, 4 mM Saccharin and 0.1 mM Neotame).
(§2) Modulation of oCNG activity by taste receptors is measured in a cell-based assay that detects changes in intracellular calcium (as described in earlier examples). In brief, human embryonic kidney cells stably expressing the OCNC1 and are β1b subunits of oCNGC are transiently or stably transfected with T1R or T2R receptor plasmids. Transfected cells are seeded into 384-well culture plates, and functional expression is allowed to proceed for about 24 to 48 hours. The cells are then incubated with a calcium specific fluorescent dye (Fluo-4 or Fura-2, available from Molecular Probes) that provides for fast, simple and reliable fluorimetric detection of changes in calcium concentration within the cell.
An experiment was conducted to assess the effect of various sweeteners (known to activate the human T1R2/T1R3 sweet receptor) on isoproterenol-induced calcium influx in HEK-293—oCNGC cells that express the human T1R2/T1R3 sweet receptor. As shown by the results in FIG. 13, increasing concentrations of sweetener inhibits isoproterenol-induced calcium influx in these cells. (In the figure, Delta F/F values were normalized to the fluorescence obtained after stimulation with 200 nM isoproterenol and each value corresponds to the means ± SD of a triplicate determination). […]

[4] = tested on: untransfected HEK 293-oCNGC cells; test: Isoproterenol-induced calcium influx in untransfected HEK 293-oCNGC cells; type: cell-based, human; conditions: cells not expressing hT1R2/hT1R3; increasing concentrations; 200 nM isoproterenol; FIG. 14
Method: Delta F/F valves were normalized to the fluorescence obtained after stimulation with 200 nM isoproterenol. Each value corresponds to the mean ± SD of a triplicate determination.
as §2
An experiment was conducted to confirm that the effects of the sweeteners on calcium influx requires the expression of the sweet receptor.
In FIG. 14, it is shown that increasing concentrations of the tested sweeteners had no inhibitory effect on isoproterenol-induced calcium influx in untransfected HEK 293—oCNGC cells. Again, Delta F/F values were normalized to the fluorescence obtained after stimulation with 200 nM isoproternol and each value component to the mean ± SD of a triplicate determination).

[5] = molecular target: T3, mouse olfactory receptor, mOREG (Mus musculus, UniProt Q920P2); test: Calcium dye fluorescence microscopy, HEK-293 cells transfected with mOREG and human olfactory CNG channel subunits; type: cell-based; conditions: CNG channel dependent and mOREG dependent, FIG. 9
T3 construct: expressed in transfected cells; host or cells: HEK-293, co-transfected with OCNC1[C458W/E581M], OCNC2 and β1b
T3 sequence (Q920P2 1-313): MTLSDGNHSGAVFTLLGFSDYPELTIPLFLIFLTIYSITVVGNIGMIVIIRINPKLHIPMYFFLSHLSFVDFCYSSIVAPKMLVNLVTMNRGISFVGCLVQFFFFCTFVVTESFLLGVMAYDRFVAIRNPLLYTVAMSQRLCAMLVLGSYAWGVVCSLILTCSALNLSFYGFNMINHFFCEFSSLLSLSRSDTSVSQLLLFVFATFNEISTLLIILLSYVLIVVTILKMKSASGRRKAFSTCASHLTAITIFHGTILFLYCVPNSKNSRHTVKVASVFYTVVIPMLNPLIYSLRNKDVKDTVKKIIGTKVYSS
Method: HEK-293 cells were transfected with OCNC1[C458W/E581FM], OCNC2, and β1band a mouse olfactory receptor, mOREG, that is activated by eugenol (Kajiya et al., 2001). Transfected cells were seeded onto multi-well plates. After 48 hours, cells were loaded with a calcium dye for one hour, then washed, and their response to eugenol stimulation was monitored by fluorescence microscopy.

[6] = tested on: human olfactory CNG channel; test: FLIPR calcium assay, HEK-293 cells stably expressing the human olfactory CNG channel; type: cell-based; conditions: calcium dye; versus parent cells; FIG. 11
Method: The HEK-293 cells that stably express the human olfactory CNG channel were seeded into FLIPR imaging plates 24 hours prior to the experiment, on plates pre-coated with matrigel. The cells were loaded with a fluorescent calcium dye for one hour, washed and transferred to a FLIPR automated fluorometric plate reader with on-board fluidics. […] Therefore, the cell-based assay is amenable to high throughput applications.

[7] = tested on: activity-enhanced human olfactory CNG channel; test: FLIPR calcium assay, HEK-293 cells stably expressing the activity-enhanced human olfactory CNG channel; type: cell-based; conditions: calcium dye; versus parent cells and wild type CNG subunits; FIG. 11
Method: The HEK-293 cells that stably express the activity-enhanced human olfactory CNG channel were seeded into FLIPR imaging plates 24 hours prior to the experiment, on plates pre-coated with matrigel. The cells were loaded with a fluorescent calcium dye for one hour, washed and transferred to a FL]PR automated fluorometric plate reader with on-board fluidics. […] Therefore, the cell-based assay is amenable to high throughput applications, especially with respect to low affinity modulators.

[8] = tested on: HEK-293-oCNGC cells; test: Calcium influx in HEK-293-oCNGC cells on isoproterenol addition; type: cell-based, human; conditions: increasing concentrations; FIG. 12
Method: FIG. 12 contains the results of an experiment showing that increasing concentrations of isoproterenol induce calcium influx in HEK 293-oCNGC cells. Delta F/F corresponds to the maximum fluorescence value obtained after stimulation minus the minimum fluorescence measured before stimulation and normalized to the minimum fluorescence measure before stimulation.
as §2
This accumulation of CAMP induces oCNGC activation, which in turn causes extracellular calcium to flow inside the cells, resulting in a net increase of intracellular calcium concentration and a parallel increase of the fluorescence signal in the cells (FIG. 12).

% Max Activity CNG136 [1]: 100%
inhibition of isoproterenol-induced calcium influx after PTx pretreatment [3]: prevented the inhibition
SMILES: COC(=O)[C@H](Cc1ccccc1)NC(=O)[C@@H](N)CC(=O)O [Aspartame] (H-Asp-Phe-OMe)
% Activity CNG (Parental Cells) [2]: 0%
effect on isoproterenol-induced calcium influx [4]: unaffected

SMILES: C=CCc1ccc(O)c(OC)c1 [Eugenol, eugenol]
fluorescence response [5]: elicited fluorescence increases

SMILES: CC(C)NCC(O)c1ccc(O)c(O)c1 (centres unmarked) [isoproterenol]
fluorescence response [6]: increased fluorescence
fluorescence response [7]: fluorescence similar to that observed with wild type CNG subunits
calcium influx [8]: in a dose-dependent manner
